These molecules were tested against T1, human androgen receptor (Homo sapiens, UniProt P10275) (assay: Androgenic activity (potency) in vitro bioassay, CHO-AR-pMMTV-LUC 1G12-A5-CA cells, luciferase reporter). Conditions: CHO cells stably transfected with human androgen receptor and MMTV-luciferase reporter; in the presence of 0.1 μmol/l onapristone; potencies expressed as percentage of DHT activity (maximal efficacy with 100 nmol/l DHT set as 100%).
T1 construct: expressed in transfected cells; host or cells: Chinese hamster ovary (CHO) cells, line CHO-AR-pMMTV-LUC 1G12-A5-CA
T1 sequence (P10275 1-920): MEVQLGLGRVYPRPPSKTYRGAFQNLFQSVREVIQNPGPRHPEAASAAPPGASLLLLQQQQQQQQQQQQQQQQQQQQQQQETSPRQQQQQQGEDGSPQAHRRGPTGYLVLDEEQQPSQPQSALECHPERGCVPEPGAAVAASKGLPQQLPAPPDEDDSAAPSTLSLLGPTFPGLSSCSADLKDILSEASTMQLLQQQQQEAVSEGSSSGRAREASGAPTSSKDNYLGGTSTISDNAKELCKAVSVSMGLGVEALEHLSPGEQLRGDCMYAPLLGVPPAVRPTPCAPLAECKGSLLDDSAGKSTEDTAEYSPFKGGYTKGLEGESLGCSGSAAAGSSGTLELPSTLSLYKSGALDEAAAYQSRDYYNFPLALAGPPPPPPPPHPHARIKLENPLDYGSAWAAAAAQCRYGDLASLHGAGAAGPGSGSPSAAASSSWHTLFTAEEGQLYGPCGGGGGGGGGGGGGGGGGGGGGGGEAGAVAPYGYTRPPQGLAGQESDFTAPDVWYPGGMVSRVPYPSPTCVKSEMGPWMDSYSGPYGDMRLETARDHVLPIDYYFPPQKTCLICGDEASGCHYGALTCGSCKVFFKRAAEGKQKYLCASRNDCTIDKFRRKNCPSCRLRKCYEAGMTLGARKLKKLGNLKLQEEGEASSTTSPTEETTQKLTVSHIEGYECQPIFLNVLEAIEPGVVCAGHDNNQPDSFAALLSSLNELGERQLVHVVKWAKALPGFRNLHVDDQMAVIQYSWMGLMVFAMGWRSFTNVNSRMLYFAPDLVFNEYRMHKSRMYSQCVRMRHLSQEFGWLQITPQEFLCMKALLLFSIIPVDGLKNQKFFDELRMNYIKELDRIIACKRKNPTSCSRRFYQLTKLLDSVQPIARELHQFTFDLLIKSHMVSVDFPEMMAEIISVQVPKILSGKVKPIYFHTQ
Format: cell-based
Procedure: The androgenic activity (potency) of the compounds of the invention was determined in an in vitro bioassay of Chinese hamster ovary (CHO) cells stably transfected with the human androgen receptor expression plasmid and a reporter plasmid in which the MMTV promoter is linked to the luciferase reporter gene. The cell line CHO-AR-pMMTV-LUC 1G12-A5-CA is described in Schoonen et al. (J. Steroid Biochem. Molec. Biol. 2002; 74: 213-222). The androgen receptor activity of compounds was determined in the presence of 0.1 μmol/l onapristone. The maximal efficacy in the presence of 100 nmol/1 DHT was set as 100%. The potencies are expressed as percentage of DHT activity.

Compound | Potency (%)
CNc1ccc2c(Sc3ccccc3[N+](=O)[O-])cn(Cc3cc(F)cc(F)c3)c2c1 [Example 1] | 15.0
CNc1ccc2c(Sc3ccccc3[N+](=O)[O-])cn(Cc3ccccn3)c2c1 [Example 2, Methyl-[3-(2-nitro-phenylsulfanyl)-1-pyridin-2-ylmethyl-1H-indol-6-yl]-amine] | 9.9
CNc1ccc2c(Sc3ccccc3[N+](=O)[O-])cn(Cc3cccnc3)c2c1 [Example 3, Methyl-[3-(2-nitro-phenylsulfanyl)-1-pyridine-3-ylmethyl-1H-indol-6-yl]-amine] | 13.4
CNc1ccc2c(Sc3ccccc3[N+](=O)[O-])cn(Cc3ccccc3)c2c1 [Example 5a, [1-Benzyl-3-(2-nitro-phenylsulfanyl)-1H-indol-6-yl]-methyl-amine] | 9.2
CNc1ccc2c(Sc3ccccc3[N+](=O)[O-])cn(Cc3ccccc3F)c2c1 [Example 5b] | 0.4
CNc1ccc2c(Sc3ccccc3[N+](=O)[O-])cn(Cc3cccc(F)c3)c2c1 [Example 5c, [1-(3-Fluoro-benzyl)-3-(2-nitro-phenylsulfanyl)-1H-indol-6-yl]-methyl-amine] | 13.3
CNc1ccc2c([S+]([O-])c3ccccc3[N+](=O)[O-])cn(Cc3ccc(F)cc3)c2c1 (stereo not shown) [Example 5d] | 4.3
CNc1ccc2c(Sc3ccccc3[N+](=O)[O-])cn(Cc3ccncc3)c2c1 [Example 5e, Methyl-[3-(2-nitro-phenylsulfanyl)-1-pyridin-4-ylmethyl-1H-indol-6-yl]-amine] | 35.1
CNc1ccc2c(Sc3ccccc3[N+](=O)[O-])cn(Cc3ncccn3)c2c1 [Example 5f, Methyl-[3-(2-nitro-phenylsulfanyl)-1-pyrimidin-2-ylmethyl-1H-indol-6-yl]-amine] | 1.8
CNc1ccc2c(Sc3ccccc3[N+](=O)[O-])cn(Cc3cncnc3)c2c1 [Example 5g, Methyl-[3-(2-nitro-phenylsulfanyl)-1-pyrimidin-5-ylmethyl-1H-indol-6-yl]-amine] | 21.6
CNc1ccc2c(Sc3ccccc3[N+](=O)[O-])cn(Cc3ccco3)c2c1 [Example 5h, [1-Furan-2-ylmethyl-3-(2-nitro-phenylsulfanyl)-1H-indol-6-yl]-methyl-amine] | 16.5
CNc1ccc2c(Sc3ccccc3[N+](=O)[O-])cn(Cc3ccoc3)c2c1 [Example 5i, [1-Furan-3-ylmethyl-3-(2-nitro-phenylsulfanyl)-1H-indol-6-yl]-methyl-amine] | 17.9
CNc1ccc2c(Sc3ccccc3[N+](=O)[O-])cn(Cc3cocn3)c2c1 [Example 5j, Methyl-[3-(2-nitro-phenylsulfanyl)-1-oxazol-4-ylmethyl-1H-indol-6-yl]-amine] | 14.8
CNc1ccc2c(Sc3ccccc3[N+](=O)[O-])cn(Cc3ccon3)c2c1 [Example 5k, [1-Isoxazol-3-ylmethyl-3-(2-nitro-phenylsulfanyl)-1H-indol-6-yl]-methyl-amine] | 11.9
CNc1ccc2c(Sc3ccccc3[N+](=O)[O-])cn(Cc3cscn3)c2c1 [Example 5l, Methyl-[3-(2-nitro-phenylsulfanyl)-1-thiazol-4-ylmethyl-1H-indol-6-yl]-amine] | 4.8
CNc1ccc2c(Sc3ccccc3[N+](=O)[O-])cn(Cc3ncco3)c2c1 [Example 5m, Methyl-[3-(2-nitro-phenylsulfanyl)-1-oxazol-2-ylmethyl-1H-indol-6-yl]-amine] | 3.2
CNc1ccc2c(Sc3ccccc3[N+](=O)[O-])cn(Cc3ccno3)c2c1 [Example 5n, [1-Isoxazol-5-ylmethyl-3-(2-nitro-phenylsulfanyl)-1H-indol-6-yl]-methyl-amine] | 19.4

Compound | Potency (%)
CNc1ccc2c(Sc3ccccc3[N+](=O)[O-])cn(Cc3cccc(Cl)c3)c2c1 [Example 5p, [1-(3-Chloro-benzyl)-3-(2-nitro-phenylsulfanyl)-1H-indol-6-yl]-methyl-amine] | 1.3
CNc1ccc2c(Sc3ccccc3[N+](=O)[O-])cn(Cc3cccc(C(F)(F)F)c3)c2c1 [Example 5q, Methyl-[3-(2-nitro-phenylsulfanyl)-1-(3-trifluoromethyl-benzyl)-1H-indol-6-yl]-amine] | 1.0
CNc1ccc2c(Sc3ccccc3[N+](=O)[O-])cn(Cc3cccc(C#N)c3)c2c1 [Example 5r, 3-[6-Methylamino-3-(2-nitro-phenylsulfanyl)-1-indol-1-ylmethyl]-benzonitrile] | 11.4
CNc1ccc2c(Sc3ccccc3[N+](=O)[O-])cn(Cc3cc(C#N)cc(C#N)c3)c2c1 [Example 5s, 5-[6-Methylamino-3-(2-nitro-phenylsulfanyl)-indol-1-ylmethyl]-isophthalonitrile] | 5.9
CNc1ccc2c(Sc3ccccc3C#N)cn(Cc3cc(F)cc(F)c3)c2c1 [Example 6] | 10.5
CNc1ccc2c(Sc3ccccc3C#N)cn(Cc3ccccn3)c2c1 [Example 7, 2-(6-Methylamino-1-pyridin-2-ylmethyl-1H-indol-3-ylsulfanyl)-benzonitrile] | 1.1
CNc1ccc2c(Sc3ccccc3C(C)=O)cn(Cc3cc(F)cc(F)c3)c2c1 [Example 8, 1-{2-[1-(3,5-Difluoro-benzyl)-6-methylamino-1H-indol-3-ylsulfanyl]-phenyl}-ethanone] | 0.2
CNc1ccc2c(Sc3ccccc3C(=O)OC)cn(Cc3cc(F)cc(F)c3)c2c1 [Example 9] | 0.7
CNc1ccc2c(Sc3ccccc3CO)cn(Cc3cc(F)cc(F)c3)c2c1 [Example 10] | 4.3
CNc1ccc2c(Sc3ccccn3)cn(Cc3cc(F)cc(F)c3)c2c1 [Example 11, [1-(3,5-Difluoro-benzyl)-3-(pyridin-2-ylsulfanyl)-1H-indol-6-yl]-methyl-amine] | 6.6
CNc1ccc2c(Sc3ncccc3[N+](=O)[O-])cn(Cc3cc(F)cc(F)c3)c2c1 [Example 12, [1-(3,5-Difluoro-benzyl)-3-(3-nitro-pyridin-2-ylsulfanyl)-1H-indol-6-yl]-methyl-amine] | 5.7
CNc1ccc2c(S(=O)(=O)c3ccccc3[N+](=O)[O-])cn(Cc3cc(F)cc(F)c3)c2c1 [Example 13, [1-(3,5-Difluoro-benzyl)-3-(2-nitro-benzenesulfonyl)-1H-indol-6-yl]-methyl-amine] | 18.9
CNc1ccc2c(S(=O)(=O)c3ccccc3[N+](=O)[O-])cn(Cc3ccccn3)c2c1 [Example 14, Methyl-[3-(2-nitro-phenylsulfonyl)-1-pyridin-2-ylmethyl-1H-indol-6-yl]-amine] | 1.9
CN(C)c1ccc2c(Sc3ccccc3[N+](=O)[O-])cn(Cc3cc(F)cc(F)c3)c2c1 [Example 18] | 2.7
CCNc1ccc2c(Sc3ccccc3[N+](=O)[O-])cn(Cc3cc(F)cc(F)c3)c2c1 [Example 19a, [1-(3,5-Difluoro-benzyl)-3-(2-nitro-phenylsulfanyl)-1H-indol-6-yl]-ethyl-amine] | 2.7
C=CCNc1ccc2c(Sc3ccccc3[N+](=O)[O-])cn(Cc3cc(F)cc(F)c3)c2c1 [Example 19b] | 2.4
CN(C)c1ccc2c(Sc3ccccc3[N+](=O)[O-])cn(Cc3ccccn3)c2c1 [Example 19c, Dimethyl-[3-(2-nitro-phenylsulfanyl)-1-pyridin-2-ylmethyl-1H-indol-6-yl]-amine] | 1.2

Source: patent US7812036B2, “Androgens” (N.V. Organon, priority 2004, dated 2010)
